Molecular target: T1, fMet-Leu-Phe receptor (Homo sapiens, UniProt P21462)
T1 sequence (P21462 whole entry): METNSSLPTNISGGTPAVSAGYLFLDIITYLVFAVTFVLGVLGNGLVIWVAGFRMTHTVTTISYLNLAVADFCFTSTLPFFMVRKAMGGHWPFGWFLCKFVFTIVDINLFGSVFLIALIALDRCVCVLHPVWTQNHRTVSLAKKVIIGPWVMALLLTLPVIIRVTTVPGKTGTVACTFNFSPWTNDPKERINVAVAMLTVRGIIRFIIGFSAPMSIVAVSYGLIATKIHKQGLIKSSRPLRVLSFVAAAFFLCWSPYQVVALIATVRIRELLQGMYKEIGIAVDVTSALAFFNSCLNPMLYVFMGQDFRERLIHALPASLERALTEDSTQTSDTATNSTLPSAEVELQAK
Assay: formyl peptide receptor binders – dose response (AID 519)

COC(=O)c1[nH]c(C)c(C(=O)C2C(=O)C(=O)N(CCN3CCOCC3)C2c2cccs2)c1C (stereo not given)
Ki: 3.3 µM

CC1=NC(C)=C(C#N)C(c2ccc3ncccc3c2)C1C#N (stereo not given)
Ki: > 43.7 µM

COc1cccc2cc(C(=O)C3C(=O)C(=O)N(Cc4ccco4)C3c3cccnc3)oc12 (stereo not given) [1-(2-furanylmethyl)-4-hydroxy-3-[(7-methoxy-2-benzofuranyl)-oxomethyl]-2-(3-pyridinyl)-2H-pyrrol-5-one]
Ki: > 43.7 µM

COc1cc(C2C(C(=O)c3cccs3)C(=O)C(=O)N2Cc2ccco2)cc(OC)c1OC (stereo not given) [1-(2-furanylmethyl)-4-hydroxy-3-[oxo(thiophen-2-yl)methyl]-2-(3,4,5-trimethoxyphenyl)-2H-pyrrol-5-one]
Ki: 17.7 µM

O=C1C(=O)N(Cc2ccco2)C(c2ccccc2)C1C(=O)c1cccs1 (stereo not given) [1-(2-furanylmethyl)-4-hydroxy-3-[oxo(thiophen-2-yl)methyl]-2-phenyl-2H-pyrrol-5-one]
Ki: 23 µM

COCCN1C(=O)C(=O)C(C(=O)c2cccs2)C1c1ccccc1 (stereo not given) [1-(2-methoxyethyl)-4-oxidanyl-2-phenyl-3-thiophen-2-ylcarbonyl-2H-pyrrol-5-one]
Ki: > 43.7 µM

O=C1C(=O)N(CCN2CCOCC2)C(c2ccccc2)C1C(=O)c1cccs1 (stereo not given) [1-(2-morpholin-4-ylethyl)-4-oxidanyl-2-phenyl-3-thiophen-2-ylcarbonyl-2H-pyrrol-5-one]
Ki: > 43.7 µM

Cc1ccc(C(=O)C2C(=O)C(=O)N(CCCn3ccnc3)C2c2ccc(OC(C)C)cc2)o1 (stereo not given) [1-(3-imidazol-1-ylpropyl)-3-(5-methylfuran-2-yl)carbonyl-4-oxidanyl-2-(4-propan-2-yloxyphenyl)-2H-pyrrol-5-one]
Ki: > 43.7 µM

CCCOc1ccc(C2C(C(=O)c3ccc(C)o3)C(=O)C(=O)N2CCCn2ccnc2)cc1 (stereo not given) [1-(3-imidazol-1-ylpropyl)-3-(5-methylfuran-2-yl)carbonyl-4-oxidanyl-2-(4-propoxyphenyl)-2H-pyrrol-5-one]
Ki: 9 µM

C=CCOc1ccc(C2C(C(=O)c3cccs3)C(=O)C(=O)N2c2nnc(C)s2)cc1 (stereo not given) [1-(5-methyl-1,3,4-thiadiazol-2-yl)-4-oxidanyl-2-(4-prop-2-enoxyphenyl)-3-thiophen-2-ylcarbonyl-2H-pyrrol-5-one]
Ki: 26.5 µM

O=C1C(=O)N(Cc2ccccc2)C(c2cccnc2)C1C(=O)c1ccco1 (stereo not given) [1-Benzyl-4-(furan-2-carbonyl)-3-hydroxy-5-pyridin-3-yl-1,5-dihydro-pyrrol-2-one]
Ki: 20 µM

O=C1C(=O)N(Cc2ccccc2)C(c2ccncc2)C1C(=O)c1ccco1 (stereo not given) [1-Benzyl-4-(furan-2-carbonyl)-3-hydroxy-5-pyridin-4-yl-1,5-dihydro-pyrrol-2-one]
Ki: 8.9 µM

O=C1C(=O)N(Cc2ccccc2)C(c2ccco2)C1C(=O)c1ccco1 (stereo not given) [1-Benzyl-4-(furan-2-carbonyl)-5-furan-2-yl-3-hydroxy-1,5-dihydro-pyrrol-2-one]
Ki: 8.1 µM

O=C1C(=O)N(CCOCCO)C(c2cccs2)C1C(=O)c1cccs1 (stereo not given) [1-[2-(2-hydroxyethyloxy)ethyl]-4-oxidanyl-2-thiophen-2-yl-3-thiophen-2-ylcarbonyl-2H-pyrrol-5-one]
Ki: 14 µM

COc1ccc(CCN2C(=O)C(=O)C(C(=O)c3ccco3)C2c2cccs2)cc1OC (stereo not given) [1-[2-(3,4-Dimethoxy-phenyl)-ethyl]-4-(furan-2-carbonyl)-3-hydroxy-5-thiophen-2-yl-1,5-dihydro-pyrrol-2-one]
Ki: 12.4 µM

Cc1ccc(C(=O)C2C(=O)C(=O)N(Cc3ccccc3)C2c2cccnc2)o1 (stereo not given) [1-benzyl-3-hydroxy-4-[(5-methylfuran-2-yl)carbonyl]-5-(pyridin-3-yl)-2,5-dihydro-1H-pyrrol-2-one]
Ki: > 43.7 µM

COc1ccc(OC)c(C2C(C(=O)c3cccs3)C(=O)C(=O)N2c2cc(C)on2)c1 (stereo not given) [2-(2,5-dimethoxyphenyl)-1-(5-methyl-1,2-oxazol-3-yl)-4-oxidanyl-3-thiophen-2-ylcarbonyl-2H-pyrrol-5-one]
Ki: > 43.7 µM

COc1ccc(OC)c(C2C(C(=O)c3ccco3)C(=O)C(=O)N2CCCN2CCOCC2)c1 (stereo not given) [2-(2,5-dimethoxyphenyl)-3-(furan-2-carbonyl)-4-hydroxy-1-(3-morpholin-4-ylpropyl)-2H-pyrrol-5-one]
Ki: 17.3 µM

O=C1C(=O)N(c2ncccn2)C(c2ccc(Cl)c(Cl)c2)C1C(=O)c1ccco1 (stereo not given) [2-(3,4-dichlorophenyl)-3-(furan-2-carbonyl)-4-hydroxy-1-pyrimidin-2-yl-2H-pyrrol-5-one]
Ki: > 43.7 µM

COc1ccc(C2C(C(=O)c3cccs3)C(=O)C(=O)N2c2nnc(C)s2)cc1OC (stereo not given) [2-(3,4-dimethoxyphenyl)-1-(5-methyl-1,3,4-thiadiazol-2-yl)-4-oxidanyl-3-thiophen-2-ylcarbonyl-2H-pyrrol-5-one]
Ki: > 43.7 µM

COc1ccc(C2C(C(=O)c3ccco3)C(=O)C(=O)N2CCc2ccccc2)cc1OC (stereo not given) [2-(3,4-dimethoxyphenyl)-3-(furan-2-carbonyl)-4-hydroxy-1-(2-phenylethyl)-2H-pyrrol-5-one]
Ki: 24.1 µM

COc1ccc(C2C(C(=O)c3ccco3)C(=O)C(=O)N2Cc2cccnc2)cc1OC (stereo not given) [2-(3,4-dimethoxyphenyl)-3-(furan-2-carbonyl)-4-hydroxy-1-(pyridin-3-ylmethyl)-2H-pyrrol-5-one]
Ki: > 43.7 µM

COc1cc(C2C(C(=O)c3ccco3)C(=O)C(=O)N2c2cc(C)on2)cc(Br)c1O (stereo not given) [2-(3-bromanyl-5-methoxy-4-oxidanyl-phenyl)-3-(furan-2-ylcarbonyl)-1-(5-methyl-1,2-oxazol-3-yl)-4-oxidanyl-2H-pyrrol-5-one]
Ki: 31.2 µM

COCCCN1C(=O)C(=O)C(C(=O)c2ccco2)C1c1cccc(Br)c1 (stereo not given) [2-(3-bromophenyl)-3-(furan-2-carbonyl)-4-hydroxy-1-(3-methoxypropyl)-2H-pyrrol-5-one]
Ki: 20.4 µM

O=C1C(=O)N(c2ncccn2)C(c2cccc(Cl)c2)C1C(=O)c1ccco1 (stereo not given) [2-(3-chlorophenyl)-3-(furan-2-carbonyl)-4-hydroxy-1-pyrimidin-2-yl-2H-pyrrol-5-one]
Ki: > 43.7 µM

CCOc1cc(C2C(C(=O)c3ccco3)C(=O)C(=O)N2CCc2ccccc2)ccc1O (stereo not given) [2-(3-ethoxy-4-hydroxyphenyl)-3-(furan-2-carbonyl)-4-hydroxy-1-(2-phenylethyl)-2H-pyrrol-5-one]
Ki: > 43.7 µM

CCOc1cc(C2C(C(=O)c3ccc(C)o3)C(=O)C(=O)N2CCc2ccccc2)ccc1O (stereo not given) [2-(3-ethoxy-4-hydroxyphenyl)-4-hydroxy-3-(5-methylfuran-2-carbonyl)-1-(2-phenylethyl)-2H-pyrrol-5-one]
Ki: 19.9 µM

COc1cc(C2C(C(=O)c3ccc(C)o3)C(=O)C(=O)N2CCc2ccccc2)ccc1O (stereo not given) [2-(3-methoxy-4-oxidanyl-phenyl)-3-(5-methylfuran-2-yl)carbonyl-4-oxidanyl-1-(2-phenylethyl)-2H-pyrrol-5-one]
Ki: 12.9 µM

COc1cc(C2C(C(=O)c3ccc(C)o3)C(=O)C(=O)N2Cc2cccnc2)ccc1O (stereo not given) [2-(3-methoxy-4-oxidanyl-phenyl)-3-(5-methylfuran-2-yl)carbonyl-4-oxidanyl-1-(pyridin-3-ylmethyl)-2H-pyrrol-5-one]
Ki: > 43.7 µM

COCCCN1C(=O)C(=O)C(C(=O)c2ccco2)C1c1ccc(Br)cc1 (stereo not given) [2-(4-bromophenyl)-3-(furan-2-carbonyl)-4-hydroxy-1-(3-methoxypropyl)-2H-pyrrol-5-one]
Ki: 9.6 µM

Cc1nc(C)c(C(=O)C2C(=O)C(=O)N(CCCn3ccnc3)C2c2ccc(Cl)cc2)s1 (stereo not given) [2-(4-chlorophenyl)-3-(2,4-dimethyl-1,3-thiazole-5-carbonyl)-4-hydroxy-1-(3-imidazol-1-ylpropyl)-2H-pyrrol-5-one]
Ki: > 43.7 µM

O=C1C(=O)N(c2ncccn2)C(c2ccc(Cl)cc2)C1C(=O)c1ccco1 (stereo not given) [2-(4-chlorophenyl)-3-(furan-2-carbonyl)-4-hydroxy-1-pyrimidin-2-yl-2H-pyrrol-5-one]
Ki: > 43.7 µM

CCOc1ccc(C2C(C(=O)c3cccs3)C(=O)C(=O)N2CCCn2ccnc2)cc1 (stereo not given) [2-(4-ethoxyphenyl)-1-(3-imidazol-1-ylpropyl)-4-oxidanyl-3-thiophen-2-ylcarbonyl-2H-pyrrol-5-one]
Ki: 37.4 µM

CCOc1ccc(C2C(C(=O)c3ccco3)C(=O)C(=O)N2CCCn2ccnc2)cc1 (stereo not given) [2-(4-ethoxyphenyl)-3-(furan-2-carbonyl)-4-hydroxy-1-(3-imidazol-1-ylpropyl)-2H-pyrrol-5-one]
Ki: 6.4 µM

CCOc1ccc(C2C(C(=O)c3ccco3)C(=O)C(=O)N2Cc2cccnc2)cc1 (stereo not given) [2-(4-ethoxyphenyl)-3-(furan-2-carbonyl)-4-hydroxy-1-(pyridin-3-ylmethyl)-2H-pyrrol-5-one]
Ki: 10 µM

COC(=O)Cc1n[nH]c2c1C(C1C=CCCC1)C(C#N)C(=N)O2 (stereo not given) [2-[6-amino-5-cyano-4-(1-cyclohex-2-enyl)-2,4-dihydropyrano[2,3-c]pyrazol-3-yl]acetic acid methyl ester]
Ki: > 43.7 µM

CCCCc1c(O)n(-c2ccccc2)n(-c2ccccc2)c1=O [3,5-Dioxo-1,2-diphenyl-4-n-butylpyrazolidine]
Ki: 3.5 µM

COc1cccc(C2C(C(=O)c3cc4ccccc4o3)C(=O)C(=O)N2c2cc(C)on2)c1OC (stereo not given) [3-(1-benzofuran-2-carbonyl)-2-(2,3-dimethoxyphenyl)-4-hydroxy-1-(5-methyl-1,2-oxazol-3-yl)-2H-pyrrol-5-one]
Ki: > 43.7 µM

COc1ccc(OC)c(C2C(C(=O)c3cc4ccccc4o3)C(=O)C(=O)N2c2cc(C)on2)c1 (stereo not given) [3-(1-benzofuran-2-carbonyl)-2-(2,5-dimethoxyphenyl)-4-hydroxy-1-(5-methyl-1,2-oxazol-3-yl)-2H-pyrrol-5-one]
Ki: 23.9 µM

O=C1C(=O)N(CCCN2CCOCC2)C(c2ccccn2)C1C(=O)c1cc2ccccc2o1 (stereo not given) [3-(1-benzofuran-2-carbonyl)-4-hydroxy-1-(3-morpholin-4-ylpropyl)-2-pyridin-2-yl-2H-pyrrol-5-one]
Ki: 39.7 µM

Reference: BindingDB's records for doi:10.7270/Q2NZ862K (Nmmlsc, 2007)
